How the values were obtained:
[1] = tested on: NCI-H460 (non-small cell lung carcinoma); test: Antiproliferative activity, sulforhodamine B (SRB) assay; format: cell-based, human; conditions: exposure 72 h, 3-fold dilutions, α-MEM + 5% fetal calf serum, 37 °C, mean ± SD of at least three independent experiments
Procedure: (§1) The antiproliferative activity of selected Cu(II) ATCUN complexes was investigated towards different tumor cell lines (HCT116, NCI-H460, SiHa and SW480 cells) and expressed as the IC50 values.
(§2) Table S13. Accumulation of Cu in HCT116 cells after 24 h incubation with Cu-GGH, 1, 3, 4 and CuCl2 (70 µM) as determined by ICP-MS (n = 3), and cytotoxic activity in human cancer cell lines HCT116, NCI-H460, SiHa and SW480 expressed as the IC50 ± SD (in µM) as well as by the residual viable cells after treatment with 70 μM of the respective compound (%) as determined by the SRB assay (exposure time 72 h). accumulated Cu IC50 values […]
(§3) a – indicates no antiproliferative activity observed after treatment with the respective compound at 70 μM for 72 h.
(§4) S-12.1 Determination of IC50 values against HCT116, NCI-H460, SiHa and SW480 […]
(§5) HCT116, SW480 and NCI-H460 cells were supplied by ATCC, while SiHa cells were supplied by Dr. David Cowan, of the Ontario Cancer Institute, Canada. The cells were grown in α-MEM (Life Technologies) supplemented with 5% fetal calf serum (Moregate Biotech) at 37 °C in a humidified incubator with 5% CO2. […]
(§6) in 96-well plates and left to settle for 24 h. Compounds were added as water solutions to the plates in a series of 3-fold dilutions for 72 h before the assay was terminated by addition of 10% trichloroacetic acid (Merck Millipore) at 4 °C for 1 h. Cells were stained […]
(§7) with 0.4% sulforhodamine B (Sigma-Aldrich) in 1% acetic acid for 30 min in the dark at room temperature and then washed with 1% acetic acid to remove unbound dye. The stain was dissolved in unbuffered Tris base (10 mM, Serva) for 30 min on a plate shaker in the dark and quantified on a BioTek EL808 microplate reader at an absorbance of 490 nm with a reference wavelength of 450 nm to determine the percentage of cell-growth inhibition by determining the absorbance of each sample relative to a negative (no inhibitor) and a no-growth control (day 0). IC50 values were calculated with SigmaPlot 12.5 (Systat Software Inc.) using a three-parameter logistic sigmoidal dose−response curve between the calculated growth inhibition and the compound concentration. The presented IC50 values are the mean of at least three independent experiments, where 10 concentrations were tested in duplicate for each compound.
(§8) Ventures), by diluting with a matrix-matched solution with regard to HNO3 and Tm concentration, producing calibration standards with concentrations of 0.5, 1, 3, 5, 7, 10, […]
(§9) The measured Cu concentrations in the cell accumulation samples were in the range of 27–82 μg/L. The reported values are the means of at least three independent accumulation experiments conducted in triplicates with blank wells for each substance to account for unspecific binding of the Cu(II) complexes to the plastic of the well plates.
(§10) Accumulation values have been corrected by subtracting the average amount Cu determined in the cell-free wells.
(§11) Calibration curves for Cu were prepared with concentrations ranging from 0.5–100 µg/L. The limit of detection (LOD) was defined as 3 times the random error in the y-direction (Sy/x) of the calibration curve divided by the slope of the calibration curve. The limit of quantification (LOQ) was defined as 10 times the random error in the y-direction (Sy/x) of the calibration curve divided by the slope of the calibration curve.42 The LOD was determined for Cu as 1.8 μg/L and the LOQ was 5.95 μg/L.

[2] = tested on: HCT116 (colorectal carcinoma); test: as above; format: cell-based, human
Procedure: as §1, §2, §3, §4, §5, §6, §7, §8, §9, §10, §11

[3] = tested on: SW480 (colon adenocarcinoma); test: as above; format: cell-based, human
Procedure: as §1, §2, §3, §4, §5, §6, §7, §8, §9, §10, §11

[4] = tested on: SiHa (cervical carcinoma); test: as above; format: cell-based, human
Procedure: as §1, §2, §3, §4, §5, §6, §7, §8, §9, §10, §11

CT-DNA = test: DNA melting curves by UV/VIS spectroscopy; format: binding, calf
[5] = after treatment with 70 μM, 72 h
[6] = exposure 72 h, 3-fold dilutions, α-MEM + 5% fetal calf serum, 37 °C, mean of at least three independent experiments

- IC50 [1]: > 70 µM
- IC50 ([2]; exposure 72 h, 3-fold dilutions, α-MEM + 5% fetal calf serum, 37 °C, Cu(II):peptide 1:1.05, mean ± SD of at least three independent experiments): > 70 µM
- IC50 [3, 6]: > 70 µM
- IC50 [4, 6]: > 70 µM
Structure (SMILES): [Cl][Cu][Cl] [CuCl2, reference compound]
- residual viable cells HCT116 [2, 5]: 87 ± 6%
- residual viable cells SW480 [3, 5]: – (indicates no antiproliferative activity observed after treatment with the respective compound at 70 μM for 72 h)
- residual viable cells SiHa [4, 5]: 93 ± 22%
- ΔTm relative to CT-DNA (CT-DNA; 2.5 µM complex or CuCl2, CT-DNA 50 µM (ref. Tm 78.3 °C), MOPS 50 mM pH 7.4): 3.2 °C
- Tm of CT-DNA after treatment (CT-DNA; 2.5 µM complex or CuCl2, CT-DNA 50 µM, MOPS 50 mM pH 7.4, 260 nm, 0.5 °C/min, Cu(II):peptide 1:1.05): 81.5 °C

Reference: article PMC9299640, “Incorporation of β‐Alanine in Cu(II) ATCUN Peptide Complexes Increases ROS Levels, DNA Cleavage and Antiproliferative Activity” (Chemistry (Weinheim an Der Bergstrasse, Germany), 2021)
